pEC50: −log10 of the molar value.
Biological target: DDA1-DDB1ΔB-DCAF15Δpro triplex with R1R2 of RBM39 (Homo sapiens, UniProt Q14498+Q66K64, Q66K64:DEL276-383)
Assay: TR-FRET, SPLAM-induced ternary complex formation, Eu-anti-His and APC-anti-FLAG
Assay type: binding

SMILES: NS(=O)(=O)c1ccc(S(=O)(=O)Nc2cccc3c(Cl)c[nH]c23)cc1 [indisulam]
- pEC50: 8.30

Reference: article doi:10.1101/758409v1 (biorxiv, 2019)
